Target: T1, KRAS 4B G12C protein (Homo sapiens, UniProt P01116, G12C)
T1 construct: This protein contained 188 amino acids in total, including an N-terminal 6-Histidine tag; made in house; host or cells: E. coli BL21
Assay: In vitro covalent adduct formation (CAF) assay by LC-MS
Assay type: binding
Settings: compound 10 μM, protein 5 μM, 22° C., percentage of protein bound by the compound
Outline: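 Recombinant His-TEV-tagged KRAS 4B G12C (residues 1-169, E. coli) at 5 μM in Tris-buffered saline pH 7.4 was incubated with 10 μM compound (4% DMSO) at 22° C. for one hour, sampling over time. Intact-mass LC-MS free:adduct ratios gave % protein bound; duplicates.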

Structure (SMILES)	CAF (10 minutes/60 minutes) at 10 micromolar: 10 minutes	CAF (10 minutes/60 minutes) at 10 micromolar: 60 minutes
C=CC(=O)N1CCN(c2nc(OC[C@@H]3CCCN3C)nc3c2CN(Cc2c(Cl)cccc2OC)C3)C[C@@H]1CCO [1-92]	0%/ 0%	0%/ 0%
C=CC(=O)N1CCN(c2nc(SC)nc3c2CN(C2CCc4ccccc42)C3)C[C@@H]1CC#N (some centres unmarked) [1-136]	16%	56%
C=CC(=O)N1C2CC(=O)CC1CN(c1nc(O[C@@H]3CN(C)C[C@H]3OC)nc3c1CN(C1CCc4ccccc41)C3)C2 (some centres unmarked) [1-232]	0%/ 0%	0%/ 0%
C=CC(=O)N1CCN(c2nc(OC[C@@H]3CCCN3C)nc3c2CN(Cc2cc(O)ccc2F)C3)C[C@@H]1CC#N [1-46]	98%	99%
C=CC(=O)N1CCN(c2nc(OC[C@@H]3CCCN3C)nc3c2CN(C2CCc4ccccc42)C3)C[C@@H]1C(O)C(F)(F)F (some centres unmarked) [1-117]	0%	4%
C=CC(=O)N1CCN(c2nc(OC)nc3c2CN(Cc2cc(O)ccc2Cl)C3)C[C@@H]1CC#N [1-78]	89%	97%
C=CC(=O)N1CCN(c2nc(OC[C@@H]3CCCN3C)nc3c2CN(Cc2c(F)cccc2OC)C3)C[C@@H]1CC#N [1-36]	91%	97%
C=CC(=O)N1CCN(c2nc(OC[C@@H]3CCCN3C)nc3c2CN(Cc2cc(C)ccc2Cl)C3)C[C@@H]1CC#N [1-80]	94%	96%
C=CC(=O)N1CCN(c2nc(OC[C@@H]3CCCN3C)nc3c2CN(Cc2ccccc2C)C3)C[C@@H]1CC#N [1-45]	94%	98%
C=CC(=O)N1CCN(c2nc(OC[C@@H]3CCCN3C)nc3c2CN(C(C)c2c(O)cccc2F)C3)C[C@@H]1CC#N (some centres unmarked) [1-111]	87%	96%
C=CC(=O)N1CCN(c2nc(OC[C@@H]3CCCN3C)nc3c2CN(Cc2[nH]c(=O)ccc2Cl)C3)[C@@H](C)C1 [1-69, 6-((4-((S)-4-acryloyl-2-methylpiperazin-1-yl)-2-(((S)-1-methylpyrrolidin-2-yl)methoxy)-5,7-dihydro-6H-pyrrolo[3,4-d]pyrimidin-6-yl)methyl)-5-chloropyridin-2(1H)-one]	0%/ 0%	0%/ 0%
C=CC(=O)N1CCN(c2nc(OC[C@@H]3CCCN3C)nc3c2CN(Cc2cccc4cccc(C)c24)C3)C[C@@H]1CC#N [1-16]	40%	86%
C=CC(=O)N1C2COCC1CN(c1nc(OC[C@@H]3CCCN3C)nc3c1CN(Cc1cc(OC)ccc1Cl)C3)C2 [1-114]	0%/ 0%	0%/ 0%
C=CC(=O)N1CCN(c2nc(OC[C@@H]3CCCN3C)nc3c2CN(Cc2c(O)cccc2Cl)C3)C[C@@H]1CC#N [1-51]	98%/ 98%	98%/ 98%
C=CC(=O)N1CCN(c2nc(OC[C@@H]3CCCN3C)nc3c2CN(Cc2c(Cl)cccc2OC)C3)C[C@@H]1C(O)C(F)(F)F (some centres unmarked) [1-98]	0%	1%
C=CC(=O)N1CCN(c2nc(OC[C@@H]3CCCN3C)nc3c2CN(Cc2cc(O)ccc2C)C3)C[C@@H]1CC#N [1-40]	98%/ 98%	98%/ 98%
C=CC(=O)N1CCN(c2nc(OC[C@@H]3CCCN3C)nc3c2CN(Cc2c(C)cccc2C)C3)C[C@@H]1CC#N [1-29]	98%	99%
C=CC(=O)N1CCN(c2nc(OC[C@@H]3CCCN3C)nc3c2CN(Cc2c(Cl)cccc2OC)C3)C[C@@H]1CC(F)(F)F [1-125]	0%/ 0%	0%/ 0%
C=CC(=O)N1CCN(c2nc(OCCN3CCOCC3)nc3c2CN(Cc2cc(O)ccc2C)C3)[C@@H](C)C1 [1-123]	0%	2%
C=CC(=O)N1CC2COCC(C1)N2c1nc(OC[C@@H]2CCCN2C)nc2c1CN(Cc1cc(OC)ccc1Cl)C2 [1-88]	0%/ 0%	0%/ 0%
C=CC(=O)N1CCN(c2nc(OC[C@@H]3CCCN3C)nc3c2CN(c2cccc4cccc(C)c24)C3)C[C@@H]1CC(F)(F)F [1-48]	0%	1%
C=CC(=O)N1CCN(c2nc(OC[C@@H]3CCCN3C)nc3c2CN(C2CCc4ccccc42)C3)C[C@@H]1CC#N (some centres unmarked) [1-42]	84%	95%
C=CC(=O)N1CCN(c2nc(OCCOC)nc3c2CN(C2CCc4ccccc42)C3)C[C@@H]1CC#N (some centres unmarked) [1-129]	26%	64%
C=CC(=O)N1CCN(c2nc(OC[C@@H]3CCCN3C)nc3c2CN(Cc2c(O)cccc2F)C3)[C@@H](C)C1 [1-47]	11%	43%
C=CC(=O)N1C[C@H](C)N(c2nc(OC[C@@H]3CCCN3C)nc3c2CN(Cc2cc(O)ccc2F)C3)C[C@H]1C [1-32]	7%	41%
C=CC(=O)N1CCN(c2nc(OC[C@@H]3CCCN3C)nc3c2CN(Cc2c(Cl)cccc2OC(F)F)C3)[C@H](C)C1 [1-91]	0%/ 0%	0%/ 0%

The next lines start with the values.

CAF (10 minutes/60 minutes) at 10 micromolar: 10 minutes	CAF (10 minutes/60 minutes) at 10 micromolar: 60 minutes	Structure (SMILES)
88%	94%	C=CC(=O)N1CCN(c2nc(OC[C@@H]3CCCN3C(C)C)nc3c2CN(C2CCc4ccccc42)C3)C[C@@H]1CC#N (some centres unmarked) [1-176]
63%	70%	C=CC(=O)N1CCN(c2nc(OC[C@@H]3CCCN3C)nc3c2CN(C2CC(C)(C)c4ccccc42)C3)C[C@@H]1CC#N (some centres unmarked) [1-169]
7%	33%	C=CC(=O)N1CCN(c2nc(CC[C@@H]3CCCN3C)nc3c2CN(C2CCc4ccccc42)C3)C[C@@H]1CC#N (some centres unmarked) [1-146]
0%	5%	C=C(F)C(=O)N1CCN(c2nc(OC[C@@H]3CCCN3C)nc3c2CN(C2CCc4ccccc42)C3)C[C@@H]1CC#N (some centres unmarked) [1-139]
0%/ 0%	0%/ 0%	C=CC(=O)N1CCN(c2nc(OC[C@@H]3CCCN3C)nc3c2CN(C2CCc4ccccc42)C3)C[C@@H]1C[S+](C)[O-] (some centres unmarked) [1-209]
0%/ 0%	0%/ 0%	C=CC(=O)N1CC2CC1CN2c1nc(OC[C@@H]2CCCN2C)nc2c1CN(C1CCc3ccccc31)C2 (some centres unmarked) [1-249]
0%/ 0%	0%/ 0%	C=C(F)C(=O)N1CCN(c2nc(OC[C@@H]3CCCN3C)nc3c2CN(Cc2n[nH]c4ccccc24)C3)C[C@@H]1CC#N [1-345]
27%	74%	C=C(F)C(=O)N1CCN(c2nc(OC[C@@H]3CCCN3C)nc3c2CN(C2CCc4ccc(Cl)c(Cl)c42)C3)C[C@@H]1CC#N (some centres unmarked) [1-337]
79%	94%	C=CC(=O)N1CCN(c2nc(OC[C@@H]3CCCN3C)nc3c2CN(Cc2cccc4nc[nH]c24)C3)C[C@@H]1CC#N [1-201]
78%	86%	C=CC(=O)N1CCN(c2nc(OC[C@@H]3CCCN3CC(F)F)nc3c2CN(C2CCc4ccccc42)C3)C[C@@H]1CC#N (some centres unmarked) [1-147]
14%	36%	C=CC(=O)N1CCN(c2nc(OC[C@@H]3CCCN3C)nc3c2CN(C2CC(C)(C)c4ccc(OC)cc42)C3)C[C@@H]1CC#N (some centres unmarked) [1-186]
6%	48%	C=C(F)C(=O)N1CCN(c2nc(OC[C@@H]3CCCN3C)nc3c2CN(Cc2cc(N)ncc2Cl)C3)C[C@@H]1CC#N [1-332]
11%	52%	C=CC(=O)N1CCN(c2nc(OC[C@@H]3CCCN3C)nc3c2CN(Cc2cccc4ncoc24)C3)C[C@@H]1CC#N [1-203]
0%/ 0%	0%/ 0%	C=CC(=O)N1CCN(c2nc(O[C@@H]3CN(C)C[C@H]3OC)nc3c2CN(C2CCc4ccccc42)C3)C2CS(=O)(=O)CC21 (some centres unmarked) [1-228]
76%	94%	C=C(F)C(=O)N1CCN(c2nc(OC[C@@H]3CCCN3C)nc3c2CN(Cc2c(Cl)ccc(O)c2Cl)C3)C[C@@H]1CC#N [1-322]
0%	1%	C=CC(=O)N1CCN(c2nc(OC[C@@H]3CCCN3C)nc3c2CN(C2CCc4ccccc42)C3)C[C@@H]1CCC(N)=O (some centres unmarked) [1-231]
0%/ 0%	0%/ 0%	C=CC(=O)N1CC2CCC1CN2c1nc(OC[C@@H]2CCCN2C)nc2c1CN(Cc1cc(OC)ccc1Cl)C2 (some centres unmarked) [1-161]

From patent publication US20210292330A1, “PYRROLIDINE-FUSED HETEROCYCLES” (Erasca, Inc., priority 2020, published 2021)
